Test results: patent US20240423245A1, “CANNABINOIDS FOR IMPROVEMENT OF P[…] LIVESTOCK” (Kansas State University Research Foundation, priority 2021, published 2024)
“And” between values parts separate entries of the source, which are not always exact repeats. Identical values can stand only once. Like-named read-outs stand apart in the source and are kept apart here.

Columns and labels:
[1] = Plasma cannabinoid concentrations and pharmacokinetics during 14-day industrial hemp feeding; assay type: in vivo, Holstein cattle; details: for number of plasma samples in which cannabinoid was detected: of 288 samples from HEMP (IH) cattle; for half-life / Cmax / AUC(0-inf) / AUC(0-t) / MRT inf / Tmax: Holstein, bovine; for MRT inf: read-out: MRT0-∞; for detection in plasma: HEMP cattle, doses 0.005 mg/kg CBDVA, 0.2 mg/kg CBGA, 0.1 mg/kg THCA-A
Method: Cattle in the HEMP group were individually fed 25 g IH mixed in 200 g grain placed in rubber feed pans at 07:00 daily for 14 days. The IH was fed at 25 g per animal per day to target a mean dose of CBDA of 5.5 mg/kg. Daily IH feeding was after the daily blood sample for cattle in the HEMP group.
Cattle were blood sampled at predetermined time points from the jugular or coccygeal veins using a needle and vacutainer. Whole blood was collected into tubes containing sodium heparin, EDTA, sodium citrate, and no additives. Blood samples from the HEMP cattle were obtained prior to initial IH feeding (day −1) and 8 and 12 h post-initial IH feeding; then every 12 h (prior to the next IH feeding); then (starting 12 hours after the last IH feeding) every 24 hours for 5 samples or 108 h after the last IH feeding Cattle in the CNTL group were blood sampled −24 h prior to the initial IH feeding; and on day 7, 14 and 19 post-initial IH feeding.
Plasma cannabinoid concentrations were determined using UPLC-MS methods. All solvents used such as methanol, acetonitrile, isopropanol, formic acid were LC-MS grade. Cannabinoids standards were purchased in individual solutions in methanol (Cerilliant Corporation, Round Rock, TX), including: (±)-cis-11-Nor-9-carboxy-A 9-tetrahydrocannabinol glucuronide (THC-glu), (±)-11-Hydroxy-Δ9-tetrahydrocannabinol (THC-OH), cannabidivarinic acid (CBDVA), cannabidivarin (CBDV), cannabidiol (CBD), cannabidiolic acid (CBDA), Δ9-Tetrahydrocannabinolic acid A (THCA-A), cannabigerolic acid (CBGA), cannabigerol (CBG), Δ9-tetrahydrocannabinol (9-THC), Δ8-tetrahydrocannabinol (8-THC), cannabichromene (CBC), Δ9-tetrahydrocannabivarin (THCV), cannabichromenic Acid (CBCA), cannabinol (CBN), (−)-11-nor-9-Carboxy-Δ9-tetrahydrocannabinol (THC-acid). Cannabinoid analogs used as internal standards were also purchased in solution in methanol at 100 μg/ml (Cerilliant Corporation, Round Rock, TX): (±)-cis-11-Nor-9-carboxy-Δ9-tetrahydrocannabinol glucuronide (THC-glu-d3), Cannabidiol-d3 (CBD-d3), Δ9-Tetrahydrocannabinol-d3 (9-THC-d3), (±)-11-nor-9-Carboxy-D9-tetrahydrocannabinol-d9 (THC-acid-d9), (±)-11-Hydroxy-Δ9-tetrahydrocannabinol-d3 (THC-OH-d3), Cannabichromene-do (CBC-d9). All cannabinoids standards were kept in the freezer at −20° C. On the day of analysis, plasma samples were allowed to thaw. Plasma (samples, quality controls or negative control plasma) were mixed with the internal standard mixture at 200 ng/mL (not added to the negative control sample) and acetonitrile with 0.1% formic acid to precipitate the proteins. The mixture was vortexed for 5 seconds and centrifuge for 5 minutes at 7,000 g. The supernatant was then diluted with ultra-pure […] water before clean-up. The sample was loaded on a solid phase extraction plate using positive pressure nitrogen. Each well was washed twice with 0.25 mL of a mixture of methanol-water (25:75). The compounds were eluted with two-25 μL aliquots of acetonitrile-methanol (90:10) and diluted with 50 μL of water before analysis.
Cannabinoid analysis was performed using an Acquity H UPLC and a TQ-S triple quadrupole mass spectrometer (Waters Corp., Milford, MA). The chromatographic separation was performed with a UPLC column (Eclipse Plus C18, Agilent Technologies, Santa Clara, CA) 100×2.1 mm, 1.8μ, heated at 55° C. The flow rate was set at 0.5 mL/min, the mobile phase consisted of a gradient of acetonitrile (B) and water containing 0.1% formic acid (A) as follow: 0 min: 60% B, 6.50 min: 86% B, 7.50 min-9 min: 100% B, 9.01 m in 12 min: 60% B. The total run time was 12 min. The injection volume was 5 μL. The data acquisition was performed by electrospray ionization in positive and negative mode using multiple reaction monitoring. Linear regression with a weighing factor of 1/X was used and accepted if the coefficient of correlation R^2 was >0.99. Calibration curves were linear from 0.1 to 100 ng/ml for all cannabinoids. […]

[2] = cited from earlier work
[3] = plasma, po, 5.5 mg/kg, geometric mean, IH fed 14 days, target dose 5.5 mg/kg CBDA, n = 8
[4] = plasma, po, 5.5 mg/kg, median, IH fed 14 days, target dose 5.5 mg/kg CBDA, n = 8
[5] = geometric mean, IH fed 14 days, target dose 5.5 mg/kg CBDA, n = 8
[6] = median, IH fed 14 days, target dose 5.5 mg/kg CBDA, n = 8
[7] = plasma, initial hemp feeding period

CCCCCc1cc2c(c(O)c1C(=O)O)C=CC(C)(CCC=C(C)C)O2 (stereo not shown) [CBCA, cannabichromenic acid]
number of plasma samples in which cannabinoid was detected [1]: 93

C=C(C)[C@@H]1CCC(C)=C[C@H]1c1c(O)cc(CCCCC)cc1O [CBD, cannabidiol, reference compound]
number of plasma samples in which cannabinoid was detected [1]: 159

C=C(C)[C@@H]1CCC(C)=C[C@H]1c1c(O)cc(CCCCC)c(C(=O)O)c1O [CBDA, cannabidiolic acid]
half-life ([1]; plasma, oral, 5.5 mg/kg, geometric mean, IH fed 14 days, target dose 5.5 mg/kg CBDA, n = 8, read-out: T1/2 (terminal half-life) (converted)): 15 h
Cmax ([1]; plasma, oral, 5.5 mg/kg, geometric mean, initial hemp feeding period, target dose 5.5 mg/kg CBDA, n = 8): 22 ng/mL
AUC(0-inf) [1, 3]: 13600 ng·h/mL
AUC(0-t) [1, 3]: 13500 ng·h/mL
MRT inf [1, 3]: 822 h
half-life ([1]; plasma, po, 5.5 mg/kg, geometric mean, IH fed 14 days, target dose 5.5 mg/kg CBDA, n = 8, read-out: T1/2 (terminal half-life) (converted)): 15.3 h
Tmax ([1]; plasma, po, 5.5 mg/kg, geometric mean, after the initial IH feeding, target dose 5.5 mg/kg CBDA, n = 8): 16.7 h
Cmax ([1]; plasma, po, 5.5 mg/kg, geometric mean, initial hemp feeding period, target dose 5.5 mg/kg CBDA, n = 8): 22.1 ng/mL
AUC(0-inf) [1, 4]: 13600 ng·h/mL
AUC(0-t) [1, 4]: 13500 ng·h/mL
Cmax [1, 4]: 22.2 ng/mL
Tmax [1, 4]: 24 h
MRT inf [1, 4]: 772 h
half-life ([1]; plasma, po, 5.5 mg/kg, median, IH fed 14 days, target dose 5.5 mg/kg CBDA, n = 8, read-out: T1/2 (converted)): 14.8 h
time to plasma steady state concentrations ([1]; daily IH administration, visual inspection of the data): approximately 7 days
Accumulation (index/ratio) ([1]; geometric mean / mean, 14-day feeding period, target dose 5.5 mg/kg CBDA, n = 8, 5.5 mg/kg): 1.5 and 1.52
AUC extrapolated [1, 5]: 0.38%
λz [1, 5]: 0.05 h⁻¹
AUC extrapolated [1, 6]: 0.49%
Accumulation [1, 6]: 1.49
λz [1, 6]: 0.05 h⁻¹
geometric mean minimum concentration [1, 7]: 12.3 ng/mL
time of minimum concentration after the initial IH feeding [1, 7]: 9.3 h
maximum CBDA concentration (Cmax), previously reported ([2]; earlier published study): 72.7 ng/mL
terminal half-life, previously published ([2]; earlier published study): 14 h
time of peak concentrations post-exposure ([2]; single oral dosing of IH): 12 to 24 h

C=C(C)[C@@H]1CCC(C)=C[C@H]1c1c(O)cc(CCC)c(C(=O)O)c1O [CBDVA, cannabidivarinic acid]
detection in plasma [1]: detected in the plasma of all cattle

CCCCCc1cc(O)c(C/C=C(\C)CCC=C(C)C)c(O)c1C(=O)O [CBGA, cannabigerolic acid]
detection in plasma [1]: detected in the plasma of all cattle

CCCCCc1cc2c(c(O)c1C(=O)O)[C@@H]1C=C(C)CC[C@H]1C(C)(C)O2 [THCA-A, tetrahydrocannabinolic acid A]
detection in plasma [1]: detected in the plasma of all cattle
